Results on 3 compounds are retold here after patent US5480905A, “Benzodioxane derivatives” (Chugai Seiyaku Kabushiki Kaisha, priority 1991, dated 1996).

The structures appear in SMILES notation. Entries after “also recorded” stand apart in the source; their conditions may differ.

The conditions of series [1]: in vivo; cited from earlier work.
Series [2] concerns S.D. line male rats. Briefly: Antidepressant effect, compelled swim test (Porsolt), time over which rats remain motionless. The settings on record: Rattus norvegicus, po, 0.5 h; peroral 20 mg/kg, 30 min before swim; read-out: Antidepressant effect, Efficacy. The format is in vivo, rat. Here is the method: An antidepression test was conducted in accordance with the method of Porsolt et al. (Europ. J. Pharmacol., 47, 379-391, 1978). Stated more specifically, 7-wk old S.D. line male rats were placed in a glass cylinder (18 cm^.phi. ×40 cm^H) for 15 min. The cylinder was filled with water (25° C.) to a depth of 15 cm. Thereafter, the rats were placed in a hot environment (32° C.) for 15 min before they were returned to the cage. Twenty-four hours later, the rats were compelled again to swim in the same cylinder for 5 min and the total time over which the rats remained motionless was measured. A test drug was administered perorally to each animal 30 min before it was compelled to swim for 5 min. Antidepressant agents are known to be capable of specifically reducing the time over which the rats would remain motionless (Psyehopharmaeol., 83, 1-16, 1984, and ibid., 94, 147-160, 1988). The antidepressant effect was calculated by the following formula: [formula]
(§1) The procedure of Test Examples 2 and 3 were repeated except that test compounds were administered perorally in a dose of 10 mg/kg.
(§2) The procedures of Test Example 2 and 3 were repeated, except that test compounds were administered perorally in a dose of 20 mg/kg to check the longevity of their antianxiety and antidepressant effects for 0.5, 2 and 4 h.

In series [3] the test system is S.D. line male rats. Briefly: Antianxiety effect, water drinking under punishment (Vogel). The format is in vivo, rat. The settings on record: Rattus norvegicus, po; peroral 20 mg/kg; read-out: Antianxiety effect, Efficacy. The procedure: Antianxiety test was conducted in accordance with a method adapted from the method of Vogel et al. (Psychopharmacol., 21, 1-7, 1971). Stated more specifically, S.D. line male rats weighing 250-300 g were entirely kept from water for 24 h and then placed in a concrete experimental box. […] The bottom of the box was made of a stainless steel grid, from which electric shock (0.2 mA, 0.5 sec) could be applied to the limbs of rats. The test schedule was as follows: first, the rats were acclimatized to the experimental box and trained for drinking water; this was done for 3 min without electric shock. The quantity of water drunk by the rats was then measured (under non-punishment). Then, the rats were kept from drinking water for 24 h. Thereafter, the quantity of water drunk by each rat was measured (before administration of test compound) under such conditions that an electric shock was applied each time a rat drank one water drop (under punishment).Thirty minutes later, a test drug was administered perorally and after an additional 20 min, the quantity of water drunk by each rat was again measured under punishment (after administration of test compound). The quantity of water drunk by rats will decrease under punishment but it is known that the initial level can be restored by administering an antianxiety agent.
The antianxiety effect of a test compound was calculated by the following formula: [formula]
as §1, §2

The subject of series [4] is apomorphine induced stereotypic behavior. Description: Antidopamine action, apomorphine induced stereotypic behavior. The format is in vivo, rat. The settings on record: for Apomorphine Induced Stereotypic Behavior, sum of scores: maximum of 24. Here is the method: Seven-week old male S.D. line rats were administered a test drug perorally and after the passage of 30 min, the dopamine agonist apomorphine was injected subcutaneously in an amount of 0.5 mg/kg. For the subsequent 5-30 min period, the intensity of stereotypic behavior that was induced in the rats by apomorphine was measured six times at 5-min intervals by a scoring method and the sum of the scores was determined (for a maximum of 24).

In series [5] the test system is intracerebral serotonin 2 receptor. Conditions: continuous administration; cited from earlier work.

Consider `CC1(C)CC(=O)N(CCCCN2CCN(c3ncccn3)CC2)C(=O)C1` [Gepirone], for which, in series [1], the “Antianxiety/antidepressant action (words, background)” value is “only weak antidepressant and antianxiety effects; also recorded: both antianxiety and antidepressant effects”; the “Side effects (words, background)” value was “either lower ultromotivity (probably due to the dopamine antagonistic action) or serotonin syndrome”.

Regarding `O=C1CC2(CCCC2)CC(=O)N1CCCCN1CCN(c2ncccn2)CC1` [Buspirone], the inhibition in vivo at 20 mg/kg in series [2] was -25.2 ± 3.9%. For the same compound, the change in vivo at 20 mg/kg in series [3] was 37.5 ± 4.7%. In addition, the “Apomorphine Induced Stereotypic Behavior, sum of scores” value in series [4] (10 mg/kg peroral, control 14.4 ± 0.9) is 10.3; in series [4] (20 mg/kg peroral, control 14.4 ± 0.9 (Comp. 1: 16.0 ± 1.1)) it was 0.7; in series [4] (40 mg/kg peroral, control 14.4 ± 0.9) it was 0.2. For the same compound, the “Antidopamine action” value in series [4] (peroral, apomorphine 0.5 mg/kg s.c.) was “stereotypic behavior induced by apomorphine was intensely compelled”.

`O=C1c2ccccc2S(=O)(=O)N1CCCCN1CCN(c2ncccn2)CC1` [Ipsapirone]: in series [1], the “Antianxiety/antidepressant action (words, background)” value is “only weak antidepressant and antianxiety effects; also recorded: both antianxiety and antidepressant effects”; the “Side effects (words, background)” value is reported as “either lower ultromotivity (probably due to the dopamine antagonistic action) or serotonin syndrome”. The “intracerebral serotonin 2 receptor (words, background)” value in series [5] was “decrease in the intracerebral serotonin 2 receptor”.
